Measured values taken from patent EP0367302A2, “Process for semi-synthesis of human insulin, water-soluble cross-linked Achromobacter protease I for use therein and a process for preparing the same” (priority 1982, dated 1983).
Where two headings read alike, the source gives them in different places.

Tests used:
[1] = tested on: PLP-Ia; type: biochemical, Achromobacter lyticus M 497-1
[2] = target: Achromobacter protease I (Achromobacter lyticus, UniProt P15636); conditions: cited from earlier work
Chain of Achromobacter protease I (P15636 206-473 limits assumed): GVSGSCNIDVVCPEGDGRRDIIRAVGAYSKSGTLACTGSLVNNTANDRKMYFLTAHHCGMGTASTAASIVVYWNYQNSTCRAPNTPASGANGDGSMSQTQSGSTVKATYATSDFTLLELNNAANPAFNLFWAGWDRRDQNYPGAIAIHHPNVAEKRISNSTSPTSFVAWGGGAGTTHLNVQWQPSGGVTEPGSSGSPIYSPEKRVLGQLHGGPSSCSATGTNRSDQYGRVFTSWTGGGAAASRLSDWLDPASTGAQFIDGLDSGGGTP

[3] = target: water-soluble cross-linked polymer of PLP (Achromobacter lyticus, UniProt P15636); assay: Activity to substrates (substrate specificity), cross-linked polymer; type: biochemical; conditions: enzyme: Cross-Linked Polymer (0.144 u); pH 9.5, 30°C; Benzoyl lysine-p-nitroanilide = 100
Chain of water-soluble cross-linked polymer of PLP (P15636 206-473 limits assumed): as above
Protocol: (§1) The activity of the enzyme was measured as follows. […] After preliminarily warming at 30°C, 0.1 mℓ of the enzyme was added to the mixture and the mixture was reacted accurately for 25 minutes at 30°C. After completion of the reaction, 1.0 mℓ of a 45% acetic acid aqueous solution was added to discontinue the reaction. Then, the reaction liquid was colorimetrically measured at wavelength of 405 nm to determine absorbance. As an enzyme unit, an amount of enzyme producing 1 µmole/min of p-nitroaniline at 30°C was made 1 unit (u). Enzyme titer was calculated according to the following equation. [formula] […] Thereafter, activities to the respective substrates were measured according to the method for measuring activity described above. Results of Table 8 were obtained.

[4] = target: PLP prior to Polymerization (Achromobacter lyticus, UniProt P15636); assay: Activity to substrates (substrate specificity), PLP prior to polymerization; type: biochemical; conditions: enzyme: PLP prior to Polymerization; pH 9.5, 30°C; Benzoyl lysine-p-nitroanilide = 100
Chain of PLP prior to Polymerization (P15636 206-473 limits assumed): as above
Protocol: as §1

Relative Activity [3] | Relative Activity [4] | Compound | Relative Activity ([1]; 1000 µM) | other results
 |  | [Cl][Hg][Cl] [HgCℓ₂] |  | Relative Activity ([1]; 100 µM): 109.4%
 |  | c1cnc2c(c1)ccc1cccnc12 [o-phenanthroline] | 99.3% | inhibition of the enzyme (in words) [2]: not inhibited
 |  | MnCℓ₂ | 101.3% | 
 |  | Cc1ccc(S(=O)(=O)N[C@@H](CCCCN)C(=O)CCl)cc1 [tosyl-L-lysine chloromethyl ketone] |  | inhibition of the enzyme (in words) [2]: strongly inhibited; inhibition of the enzyme (in words) [1]: undergoes inhibition; Relative Activity ([1]; 100 µM): 0%
0.00% | 0.00% | O=C(N[C@@H](Cc1ccc(O)cc1)C(=O)Nc1ccc([N+](=O)[O-])cc1)c1ccccc1 [Benzoyl tyrosine-p-nitroanilide] |  | 
 |  | O=C(O)c1cc[c]([Hg][Cl])cc1 [p-chloromercury benzoate] |  | inhibition of the enzyme (in words) [2]: not inhibited; Relative Activity ([1]; 100 µM): 94.8%
 |  | [Cl-].[Na+] [NaCℓ₂] |  | Relative Activity ([1]; bz-lys-p-na amidase assay, pH 9.5, 25 min, 1000 µM): 99.0%
5.6% | 2.4% | NCCCC[C@H](N)C(=O)Nc1ccc([N+](=O)[O-])cc1 [Lysine-p-nitroanilide] |  | 
 |  | Cc1ccc(S(=O)(=O)N[C@@H](Cc2ccccc2)C(=O)CCl)cc1 [tosyl-L-phenylalanine chloromethyl ketone] | 92.2% | inhibition of the enzyme (in words) [2]: not inhibited
 |  | [Cl-].[Cl-].[Zn+2] [ZnCℓ₂] | 44.1% | inhibition of the enzyme (in words) [1]: inhibited
 |  | CoCℓ₂ | 98.1% | 
 |  | MgCℓ₂ | 95.3% | 
 |  | N[C@@H](CS)C(=O)O [L-cystein] | 97.8% | 
0.00% | 0.00% | N[C@@H](CCC(=O)O)C(=O)Nc1ccc([N+](=O)[O-])cc1 [Glutamic acid-p-nitroanilide] |  | 
 |  | [Ca+2].[Cl-].[Cl-] [CaCℓ₂] | 102.2% | 
0.04% | 0.01% | N=C(N)NCCC[C@H](NC(=O)c1ccccc1)C(=O)Nc1ccc([N+](=O)[O-])cc1 [Benzoyl arginine-p-nitroanilide] |  | 
 |  | O=C(O)CI [monoiodoacetate] | 84.4% | 
0.00% | 0.00% | CC(C)C[C@H](N)C(=O)Nc1ccc([N+](=O)[O-])cc1 [Leucine-p-nitroanilide] |  | 
0.00% | 0.00% | CC(=O)N[C@@H](Cc1ccccc1)C(=O)Nc1ccc([N+](=O)[O-])cc1 [Acetylphenylalanine-p-nitroanilide] |  | 
 |  | O[C@H](CS)[C@H](O)CS (racemic) [dithiothreitol] | 103.9% | 
 |  | diisopropyl phosphochloride |  | inhibition of the enzyme (in words) [2]: strongly inhibited
100% | 100% | NCCCC[C@H](NC(=O)c1ccccc1)C(=O)Nc1ccc([N+](=O)[O-])cc1 [Benzoyl lysine-p-nitroanilide] |  | 
 |  | NiCℓ₂ | 83.8% | 
 |  | O=S(=O)(F)Cc1ccccc1 [phenylmethylsulfonyl fluoride] |  | inhibition of the enzyme (in words) [1]: undergoes inhibition; Relative Activity ([1]; 2000 µM): 18.3%
0.00% | 0.00% | C[C@H](N)C(=O)Nc1ccc([N+](=O)[O-])cc1 [Alanine-p-nitroanilide] |  | 
 |  | Cc1ccc(S(=O)(=O)N[C@@H](CCCNC(=N)N)C(=O)CCl)cc1 [tosyl-L-arginine chloromethyl ketone] |  | Relative Activity ([1]; 100 µM): 79.1%
